# Data published in paper PMC9950431, “A bivalent remipede toxin promotes calcium release via ryanodine receptor activation” (Nature Communications, 2023).
# What was measured:
# [1] = tested on: CaV1.3; test: FLIPR Ca2+ assay, inhibition of endogenous CaV1.3; assay type: cell-based, human; conditions: for Ca2+ response relative to control response: 3 µM Xt3a pre-treatment, KCl 90 mM/CaCl2 5 mM, over 300 s
# Description: (§1) SH-SY5Y human neuroblastoma cells (European Collection of Authenticated Cell Culture, Sigma Aldrich, 94030304-1VL) were cultured in RPMI media (ThermoFisher Scientific, Scoresby, Australia) supplemented with 15% foetal bovine serum and L-glutamine (1 mM) and passaged at approximately 80% confluency with TrypLE Express (Thermo Fisher, Australia). For fluorescence imaging, cells were plated on CellBIND (Corning) 384-well black-walled imaging plates at a density of 20,000–30,000 cells/well in complete media and cultured for 48 h at 37 °C/5% CO2.
# (§2) Briefly, SH-SY5Y cells were loaded with Calcium 4 no-wash dye (Molecular Devices) diluted in physiological salt solution (composition in mM: NaCl 140, D-glucose 11.5, KCl 5.9, MgCl2 1.4, NaH2PO4 1.2, NaHCO3 5, CaCl2 1.8, HEPES 10) for 30 min at 37 °C. A two-addition FLIPR^Tetra (Molecular Devices) protocol using the following settings was used to measure fluorescence responses: excitation 470–495 nm; emission 515–575 nm; excitation intensity 80%; excitation duration 0.8 s; gain 140; read interval 1/s; read number 300/addition. Responses mediated via endogenously expressed ion channels were elicited by addition of: choline (30 μM)/PNU-120596 (10 μM) for α7 nAChR-mediated responses; nicotine (30 μM) for α3β2/α3β4 nAChR-mediated responses; KCl (90 mM)/CaCl2 (5 mM) for CaV1.3-mediated responses; KCl (90 mM)/CaCl2 (5 mM) + nifedipine (10 μM) for CaV2.2-mediated responses; vertridine (70 μM) for NaV1.2-mediated responses; and veratridine (4 μM)/OD1 (300 nM) for NaV1.7-mediated responses. Raw fluorescence readings were converted to response over baseline using the analysis tool Screenworks 3.1.1.4 (Molecular Devices) and were expressed relative to the maximum increase in fluorescence of control responses and plotted using GraphPad Prism 9.3.1.
# (§3) In the cell-based FLIPR assays statistical analysis was performed using GraphPad Prism 9.3.1. Statistical significance was defined as p < 0.05, and determined by one-sample t-test assessing difference to the control value of 100%. In α7 nAChR, α3-containing nAChR, CaV1.3, CaV2.2, NaV1.2 and NaV1.7 channels (Supplementary Fig. 5B), with distribution (t) and degrees of freedom (df) being: t = 0.9683, df = 2 (α7); t = 1.338, df = 2 (α3); t = 1.775, df = 2 (NaV1.2); t = 1.478
# [2] = tested on: NaV1.7; test: FLIPR Ca2+ assay, inhibition of endogenous NaV1.7; assay type: cell-based, human; conditions: for Ca2+ response relative to control response: 3 µM Xt3a pre-treatment, veratridine 4 μM/OD1 300 nM, over 300 s
# Description: as §1, §2, §3
# [3] = target: T1, ryanodine receptor (Oryctolagus cuniculus, UniProt P11716); test: Single channel recording with Xt3a exposure, sheet "Figure 3B" (RyR isoform not given); assay type: biochemical
# T1 construct: skeletal SR vesicles were isolated from the back and leg muscles of mature female New Zealand white rabbits; from tissue; host or cells: rabbit back and leg skeletal muscle, sarcoplasmic reticulum vesicles
# [4] = target: T1, ryanodine receptor; test: Single channel recording, washout (Woearly, Wolate) after Xt3a, sheet "Figure 3B" (RyR isoform not given); assay type: biochemical
# Text: Supplement 41467_2023_36579_MOESM6_ESM.xlsx, sheet "Figure 3B" | column: Woearly; Wolate
# T1 sequence (P11716 whole entry, canonical isoform): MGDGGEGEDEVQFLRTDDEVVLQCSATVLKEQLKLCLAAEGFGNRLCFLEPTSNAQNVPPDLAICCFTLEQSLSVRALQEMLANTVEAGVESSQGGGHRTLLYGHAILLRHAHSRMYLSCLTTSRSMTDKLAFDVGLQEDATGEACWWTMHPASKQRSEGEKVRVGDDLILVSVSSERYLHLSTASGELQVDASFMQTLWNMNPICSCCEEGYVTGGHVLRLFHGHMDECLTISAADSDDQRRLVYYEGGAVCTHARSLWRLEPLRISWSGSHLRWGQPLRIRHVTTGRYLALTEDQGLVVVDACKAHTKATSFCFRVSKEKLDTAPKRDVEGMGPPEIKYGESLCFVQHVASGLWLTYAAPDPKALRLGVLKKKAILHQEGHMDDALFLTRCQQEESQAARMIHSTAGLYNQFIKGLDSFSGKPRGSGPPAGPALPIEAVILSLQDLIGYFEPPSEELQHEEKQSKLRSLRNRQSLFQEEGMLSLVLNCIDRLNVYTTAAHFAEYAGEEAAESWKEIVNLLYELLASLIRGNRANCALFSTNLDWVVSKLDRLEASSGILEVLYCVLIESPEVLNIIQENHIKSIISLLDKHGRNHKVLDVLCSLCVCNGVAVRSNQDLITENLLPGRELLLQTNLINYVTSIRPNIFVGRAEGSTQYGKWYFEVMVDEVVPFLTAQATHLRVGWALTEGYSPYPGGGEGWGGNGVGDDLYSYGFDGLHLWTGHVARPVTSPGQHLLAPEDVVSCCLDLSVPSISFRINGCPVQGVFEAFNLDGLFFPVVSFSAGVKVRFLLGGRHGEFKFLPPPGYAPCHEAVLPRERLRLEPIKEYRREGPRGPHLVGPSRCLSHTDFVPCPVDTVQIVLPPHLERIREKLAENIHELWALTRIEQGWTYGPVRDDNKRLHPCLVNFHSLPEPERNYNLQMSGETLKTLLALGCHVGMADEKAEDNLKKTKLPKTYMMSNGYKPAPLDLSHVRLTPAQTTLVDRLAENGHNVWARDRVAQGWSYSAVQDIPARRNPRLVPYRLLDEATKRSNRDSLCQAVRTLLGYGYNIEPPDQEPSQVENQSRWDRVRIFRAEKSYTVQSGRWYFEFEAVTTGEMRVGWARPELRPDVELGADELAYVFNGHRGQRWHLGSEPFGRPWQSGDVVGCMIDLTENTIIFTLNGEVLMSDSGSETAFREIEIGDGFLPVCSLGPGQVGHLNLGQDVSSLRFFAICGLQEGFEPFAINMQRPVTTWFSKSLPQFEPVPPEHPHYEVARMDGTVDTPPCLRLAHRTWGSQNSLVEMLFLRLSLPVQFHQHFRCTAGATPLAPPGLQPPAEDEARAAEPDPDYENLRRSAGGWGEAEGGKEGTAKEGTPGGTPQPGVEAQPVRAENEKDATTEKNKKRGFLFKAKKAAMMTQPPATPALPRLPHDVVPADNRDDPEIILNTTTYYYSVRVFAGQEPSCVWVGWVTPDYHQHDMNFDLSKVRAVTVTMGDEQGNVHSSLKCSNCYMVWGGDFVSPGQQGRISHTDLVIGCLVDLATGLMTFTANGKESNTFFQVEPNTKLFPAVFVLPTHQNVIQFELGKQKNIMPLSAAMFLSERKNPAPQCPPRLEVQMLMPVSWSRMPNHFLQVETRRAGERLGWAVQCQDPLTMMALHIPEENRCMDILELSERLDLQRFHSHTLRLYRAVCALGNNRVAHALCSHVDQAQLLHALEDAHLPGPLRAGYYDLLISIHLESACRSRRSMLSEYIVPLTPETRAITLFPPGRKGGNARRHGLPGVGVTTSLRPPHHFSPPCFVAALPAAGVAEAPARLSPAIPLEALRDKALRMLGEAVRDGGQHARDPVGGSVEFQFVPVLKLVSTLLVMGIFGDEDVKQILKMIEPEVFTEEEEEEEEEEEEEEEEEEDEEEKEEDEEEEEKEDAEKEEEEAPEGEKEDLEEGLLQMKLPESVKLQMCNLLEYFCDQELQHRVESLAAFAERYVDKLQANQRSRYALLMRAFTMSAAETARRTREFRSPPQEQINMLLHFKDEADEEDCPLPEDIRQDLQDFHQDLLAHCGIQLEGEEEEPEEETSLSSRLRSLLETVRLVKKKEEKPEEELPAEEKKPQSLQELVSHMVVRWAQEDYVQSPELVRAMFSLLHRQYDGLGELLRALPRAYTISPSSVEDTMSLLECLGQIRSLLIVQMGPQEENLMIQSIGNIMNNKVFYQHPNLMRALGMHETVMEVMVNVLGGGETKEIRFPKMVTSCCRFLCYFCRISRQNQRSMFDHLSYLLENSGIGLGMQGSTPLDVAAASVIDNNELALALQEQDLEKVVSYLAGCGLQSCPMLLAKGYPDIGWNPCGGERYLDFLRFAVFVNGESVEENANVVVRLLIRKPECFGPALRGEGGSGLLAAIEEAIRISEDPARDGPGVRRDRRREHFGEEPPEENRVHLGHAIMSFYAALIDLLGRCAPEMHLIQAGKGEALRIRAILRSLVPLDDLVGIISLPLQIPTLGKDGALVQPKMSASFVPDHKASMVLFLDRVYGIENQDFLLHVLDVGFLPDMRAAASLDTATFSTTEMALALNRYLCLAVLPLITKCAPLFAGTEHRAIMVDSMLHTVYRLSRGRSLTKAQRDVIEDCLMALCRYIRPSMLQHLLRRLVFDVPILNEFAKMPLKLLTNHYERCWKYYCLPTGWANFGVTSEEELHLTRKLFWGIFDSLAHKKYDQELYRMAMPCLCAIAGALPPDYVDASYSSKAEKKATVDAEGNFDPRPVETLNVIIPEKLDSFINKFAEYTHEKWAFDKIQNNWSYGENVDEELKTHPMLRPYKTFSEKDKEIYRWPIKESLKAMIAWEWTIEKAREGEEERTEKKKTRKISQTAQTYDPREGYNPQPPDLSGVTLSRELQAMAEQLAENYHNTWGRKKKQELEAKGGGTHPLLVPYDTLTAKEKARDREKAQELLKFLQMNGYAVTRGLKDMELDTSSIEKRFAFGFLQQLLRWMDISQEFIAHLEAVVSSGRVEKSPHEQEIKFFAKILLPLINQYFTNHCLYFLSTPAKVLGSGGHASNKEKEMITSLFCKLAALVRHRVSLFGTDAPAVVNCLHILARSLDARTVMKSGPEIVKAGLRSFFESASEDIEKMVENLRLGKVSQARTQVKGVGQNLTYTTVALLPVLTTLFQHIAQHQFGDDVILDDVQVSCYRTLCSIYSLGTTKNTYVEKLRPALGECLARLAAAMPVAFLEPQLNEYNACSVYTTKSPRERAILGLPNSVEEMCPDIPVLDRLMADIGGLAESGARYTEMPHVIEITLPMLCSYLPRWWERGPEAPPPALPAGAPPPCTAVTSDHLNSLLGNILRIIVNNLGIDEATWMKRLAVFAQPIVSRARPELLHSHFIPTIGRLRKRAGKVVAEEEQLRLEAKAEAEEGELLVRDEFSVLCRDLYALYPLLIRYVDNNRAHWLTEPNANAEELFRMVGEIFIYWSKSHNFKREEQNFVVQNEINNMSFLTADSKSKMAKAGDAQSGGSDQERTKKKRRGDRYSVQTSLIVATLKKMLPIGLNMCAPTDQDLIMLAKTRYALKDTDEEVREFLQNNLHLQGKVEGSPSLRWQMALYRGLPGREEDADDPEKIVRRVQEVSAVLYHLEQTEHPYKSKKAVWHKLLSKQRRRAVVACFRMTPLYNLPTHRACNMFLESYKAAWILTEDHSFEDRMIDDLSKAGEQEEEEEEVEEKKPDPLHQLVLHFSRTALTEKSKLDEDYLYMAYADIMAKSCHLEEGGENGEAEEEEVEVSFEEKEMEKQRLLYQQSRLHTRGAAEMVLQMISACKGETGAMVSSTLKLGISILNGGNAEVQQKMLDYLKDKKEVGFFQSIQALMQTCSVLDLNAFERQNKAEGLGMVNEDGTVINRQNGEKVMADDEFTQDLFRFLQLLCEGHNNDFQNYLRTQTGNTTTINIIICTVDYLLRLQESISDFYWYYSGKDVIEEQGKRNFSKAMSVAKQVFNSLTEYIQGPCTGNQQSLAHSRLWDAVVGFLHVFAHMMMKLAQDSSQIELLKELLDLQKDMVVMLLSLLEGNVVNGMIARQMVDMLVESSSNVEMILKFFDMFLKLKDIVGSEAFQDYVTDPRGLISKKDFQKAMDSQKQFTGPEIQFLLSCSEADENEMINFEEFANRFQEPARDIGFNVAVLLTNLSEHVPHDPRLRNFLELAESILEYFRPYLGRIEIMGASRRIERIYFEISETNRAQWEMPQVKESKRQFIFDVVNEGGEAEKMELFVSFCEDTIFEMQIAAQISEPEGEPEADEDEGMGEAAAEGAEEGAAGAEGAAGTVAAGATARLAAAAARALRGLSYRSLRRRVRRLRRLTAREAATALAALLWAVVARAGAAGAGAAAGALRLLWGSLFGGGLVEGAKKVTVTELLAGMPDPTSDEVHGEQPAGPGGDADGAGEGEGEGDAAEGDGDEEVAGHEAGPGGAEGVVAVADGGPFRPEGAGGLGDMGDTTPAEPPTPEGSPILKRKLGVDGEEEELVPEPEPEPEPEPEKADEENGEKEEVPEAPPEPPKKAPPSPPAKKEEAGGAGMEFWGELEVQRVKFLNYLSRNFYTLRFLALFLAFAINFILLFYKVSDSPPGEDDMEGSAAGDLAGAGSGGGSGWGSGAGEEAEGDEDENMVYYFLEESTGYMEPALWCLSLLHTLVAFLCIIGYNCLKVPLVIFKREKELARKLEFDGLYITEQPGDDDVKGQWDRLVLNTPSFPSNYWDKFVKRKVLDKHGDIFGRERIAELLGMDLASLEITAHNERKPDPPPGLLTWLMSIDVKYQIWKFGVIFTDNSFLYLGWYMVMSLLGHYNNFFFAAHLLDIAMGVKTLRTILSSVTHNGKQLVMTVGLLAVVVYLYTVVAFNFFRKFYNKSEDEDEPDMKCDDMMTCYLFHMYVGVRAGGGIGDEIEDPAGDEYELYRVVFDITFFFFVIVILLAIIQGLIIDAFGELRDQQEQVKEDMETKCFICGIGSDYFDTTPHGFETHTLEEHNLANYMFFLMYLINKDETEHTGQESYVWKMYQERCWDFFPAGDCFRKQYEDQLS
substance,measurement,setting,value
φ-Xibalbin3-Xt3a,Ca2+ response relative to control response,[1]; replicate 1,100.265%
same,Ca2+ response relative to control response,[1]; replicate 2,98.0302%
same,Ca2+ response relative to control response,[1]; replicate 3,95.1795%
same,inhibition of Ca2+ responses,[1]; Xt3a 3 µM,did not inhibit Ca^2+ responses
same,Ca2+ response relative to control response,[2]; replicate 1,99.4493%
same,Ca2+ response relative to control response,[2]; replicate 2,100.583%
same,Ca2+ response relative to control response,[2]; replicate 3,102.164%
same,inhibition of Ca2+ responses,[2]; Xt3a 3 µM,did not inhibit Ca^2+ responses
same,rel Po,"[3]; 1nM Xt3a vs 1 micoM Ca, CT1124n",0.8977
same,rel Po,"[3]; 1nM Xt3a vs 1 micoM Ca, CT1124p",0.6333
same,rel Po,"[3]; 1nM Xt3a vs 1 micoM Ca, CT1125p (r7)",0.7826
same,rel Po,"[3]; 1nM Xt3a vs 1 micoM Ca, CT1125p (r12)",0.3373
same,rel Po,"[3]; 1nM Xt3a vs 1 micoM Ca, CT1126n",1.286
same,rel Po,"[3]; 1nM Xt3a vs 1 micoM Ca, CT1126p",0.0123
same,rel Po,"[3]; 1nM Xt3a vs 1 micoM Ca, CT1129p",0.92
same,rel Po,"[3]; 1nM Xt3a vs 1 micoM Ca, mean of 7 records",0.6956
same,rel Po,"[3]; 10nM Xt3a vs 1 micoM Ca, CT1124n",0.4488
same,rel Po,"[3]; 10nM Xt3a vs 1 micoM Ca, CT1124p",0.3778
same,rel Po,"[3]; 10nM Xt3a vs 1 micoM Ca, CT1125p (r7)",1.957
same,rel Po,"[3]; 10nM Xt3a vs 1 micoM Ca, CT1125p (r12)",1.108
same,rel Po,"[3]; 10nM Xt3a vs 1 micoM Ca, CT1126n",2.128
same,rel Po,"[3]; 10nM Xt3a vs 1 micoM Ca, CT1126p",0.02049
same,rel Po,"[3]; 10nM Xt3a vs 1 micoM Ca, CT1129p",0.23
same,rel Po,"[3]; 10nM Xt3a vs 1 micoM Ca, mean of 7 records",0.8957
same,rel Po,"[3]; 100nM Xt3a vs 1 micoM Ca, CT1134 n",0.7716
same,rel Po,"[3]; 100nM Xt3a vs 1 micoM Ca, CT1134 p",1.135
same,rel Po,"[3]; 100nM Xt3a vs 1 micoM Ca, CT1135 n",0.4052
same,rel Po,"[3]; 100nM Xt3a vs 1 micoM Ca, CT1135 p",0.4783
same,rel Po,"[3]; 100nM Xt3a vs 1 micoM Ca, CT1136 n",1.741
same,rel Po,"[3]; 100nM Xt3a vs 1 micoM Ca, CT1136 p",0.75
same,rel Po,"[3]; 100nM Xt3a vs 1 micoM Ca, CT1137 n",0.9231
same,rel Po,"[3]; 100nM Xt3a vs 1 micoM Ca, CT1137p",4
same,rel Po,"[3]; 100nM Xt3a vs 1 micoM Ca, CT1138n",4.333
same,rel Po,"[3]; 100nM Xt3a vs 1 micoM Ca, CT1138p",1.4
same,rel Po,"[3]; 100nM Xt3a vs 1 micoM Ca, mean of 10 records",1.5937
same,rel Po,"[3]; 1 microM Xt3a vs 1 micoM Ca, CT1134 n",1.472
same,rel Po,"[3]; 1 microM Xt3a vs 1 micoM Ca, CT1134 p",4.143
same,rel Po,"[3]; 1 microM Xt3a vs 1 micoM Ca, CT1135 n",32.1638
same,rel Po,"[3]; 1 microM Xt3a vs 1 micoM Ca, CT1136 n",1
same,rel Po,"[3]; 1 microM Xt3a vs 1 micoM Ca, CT1136 p",0.625
same,rel Po,"[3]; 1 microM Xt3a vs 1 micoM Ca, CT1137 n",1.769
same,rel Po,"[3]; 1 microM Xt3a vs 1 micoM Ca, CT1137p",2
same,rel Po,"[3]; 1 microM Xt3a vs 1 micoM Ca, CT1138n",1.286
same,rel Po,"[3]; 1 microM Xt3a vs 1 micoM Ca, CT1138p",0.9
same,rel Po,"[3]; 1 microM Xt3a vs 1 micoM Ca, mean (CT1135 p cell empty)",5.04
same,rel Po,"[4]; Woearly after 10nM Xt3a vs 1 micoM Ca, CT1124n",1.432
same,rel Po,"[4]; Woearly after 10nM Xt3a vs 1 micoM Ca, CT1124p",0.937
same,rel Po,"[4]; Woearly after 10nM Xt3a vs 1 micoM Ca, CT1125p (r7)",0.4348
same,rel Po,"[4]; Woearly after 10nM Xt3a vs 1 micoM Ca, CT1125p (r12)",0.3976
same,rel Po,"[4]; Woearly after 10nM Xt3a vs 1 micoM Ca, CT1126n",1.917
same,rel Po,"[4]; Woearly after 10nM Xt3a vs 1 micoM Ca, CT1126p",0.1557
same,rel Po,"[4]; Woearly after 10nM Xt3a vs 1 micoM Ca, CT1129p",0.23
same,rel Po,"[4]; Woearly after 10nM Xt3a vs 1 micoM Ca, mean of 7 records",0.7864
same,rel Po,"[4]; Woearly after 1 microM Xt3a vs 1 micoM Ca, CT1134 n",4.4537
same,rel Po,"[4]; Woearly after 1 microM Xt3a vs 1 micoM Ca, CT1134 p",3.797
same,rel Po,"[4]; Woearly after 1 microM Xt3a vs 1 micoM Ca, CT1135 n",34.6466
same,rel Po,"[4]; Woearly after 1 microM Xt3a vs 1 micoM Ca, CT1136 n",1.926
same,rel Po,"[4]; Woearly after 1 microM Xt3a vs 1 micoM Ca, CT1136 p",1.125
same,rel Po,"[4]; Woearly after 1 microM Xt3a vs 1 micoM Ca, CT1137 n",1.615
same,rel Po,"[4]; Woearly after 1 microM Xt3a vs 1 micoM Ca, CT1137p",7.5
same,rel Po,"[4]; Woearly after 1 microM Xt3a vs 1 micoM Ca, CT1138n",1
same,rel Po,"[4]; Woearly after 1 microM Xt3a vs 1 micoM Ca, CT1138p",8.033
same,rel Po,"[4]; Woearly after 1 microM Xt3a vs 1 micoM Ca, mean (CT1135 p cell empty)",7.122
same,rel Po,"[4]; Wolate after 10nM Xt3a vs 1 micoM Ca, CT1124n",0.8317
same,rel Po,"[4]; Wolate after 10nM Xt3a vs 1 micoM Ca, CT1124p",12.1926
same,rel Po,"[4]; Wolate after 10nM Xt3a vs 1 micoM Ca, CT1125p (r7)",0.7826
same,rel Po,"[4]; Wolate after 10nM Xt3a vs 1 micoM Ca, CT1125p (r12)",0.9398
same,rel Po,"[4]; Wolate after 10nM Xt3a vs 1 micoM Ca, CT1126n",0.9549
same,rel Po,"[4]; Wolate after 10nM Xt3a vs 1 micoM Ca, CT1126p",1.131
same,rel Po,"[4]; Wolate after 10nM Xt3a vs 1 micoM Ca, CT1129p",0.13
same,rel Po,"[4]; Wolate after 10nM Xt3a vs 1 micoM Ca, mean of 7 records",2.423
same,rel Po,"[4]; Wolate after 1 microM Xt3a vs 1 micoM Ca, CT1134 n",20.9074
same,rel Po,"[4]; Wolate after 1 microM Xt3a vs 1 micoM Ca, CT1134 p",6.491
same,rel Po,"[4]; Wolate after 1 microM Xt3a vs 1 micoM Ca, CT1135 n",34.2069
same,rel Po,"[4]; Wolate after 1 microM Xt3a vs 1 micoM Ca, CT1135 p",0.02609
same,rel Po,"[4]; Wolate after 1 microM Xt3a vs 1 micoM Ca, CT1136 n",4.7037
same,rel Po,"[4]; Wolate after 1 microM Xt3a vs 1 micoM Ca, CT1136 p",2
same,rel Po,"[4]; Wolate after 1 microM Xt3a vs 1 micoM Ca, CT1137 n",0.6923
same,rel Po,"[4]; Wolate after 1 microM Xt3a vs 1 micoM Ca, CT1137p",0.75
same,rel Po,"[4]; Wolate after 1 microM Xt3a vs 1 micoM Ca, CT1138n",2.952
same,rel Po,"[4]; Wolate after 1 microM Xt3a vs 1 micoM Ca, CT1138p",2.133
same,rel Po,"[4]; Wolate after 1 microM Xt3a vs 1 micoM Ca, mean of 10 records",7.486
